Reference: paper PMC12346480, “The Pharmacokinetic and Pharmacodynamic Relationship of Clinically Used Antiseizure Medications in the Maximal Electroshock Seizure Model in Rodents” (International Journal of Molecular Sciences, 2025)
pEC50: −log10 of the molar value. Where two headings read alike, the source gives them in different places.

Key:
MES-induced seizures [1] = experiment: animal or person; type: in vivo; conditions: mouse MES; single dose, route and pre-treatment time per Table 2 (PO or IP, 0.25-2 h); read-out: ED50 (median effective dose)
[2] = human plasma; published data ref 36-47; cited from earlier work
MES-induced seizures [3] = experiment: animal or person; type: in vivo
Experimental: (§1) Animals were group-housed (2–4 mice or 3–4 rats per cage) in plastic cages and maintained under controlled temperature (18–25 °C), humidity, ventilation, and lighting (12 h light/dark cycle). They had free access to water and Certified Rodent Chow (Teklad Rodent Chow). Upon arrival, the animals were examined to ensure good health status and were acclimated to the facility for at least 5 days before being subjected to the MES protocol. All experiments were conducted in accordance with guidelines set by the Canadian Council on Animal Care and approved by the Xenon Animal Care Committee.
(§2) Drugs were administered by the intraperitoneal route (IP; dissolved in sterile saline) or oral route (PO; dissolved in 0.5% methylcellulose + 0.2% Tween 80 in DI water) in a volume of 10 mL/kg. Control animals received the appropriate vehicle. The doses and pre-treatment times for each drug, detailed in Table 2, were determined based on in-house data or, in some cases, from the publicly available PANACHE database.
(§3) The MES assay is widely used in the search for anticonvulsant substances. This animal model for generalized tonic–clonic seizures assesses a compound’s ability to prevent seizure spread. […] Before the electroshock stimulation, the eyes were anesthetized with a topical application of 0.5% proparacaine hydrochloride (one drop per eye). Animals were then restrained; the corneal electrodes were applied, and the shock was administered. An MES-induced seizure was characterized by an initial generalized tonic seizure with a hindlimb tonic extensor component.
(§4) The protocols for administering PO or IP doses of the vehicle or drug are described in […]. These doses were administered 0.5–2 h before the application of electric stimulation. An animal was considered protected from MES-induced seizures if the hindlimb tonic extensor component of the seizure was abolished, and it was scored as “0”. […] Seizure induction and scoring were performed by an experimenter who was blinded to treatment conditions.
(§5) After being subjected to the stimulation protocol, rodents were anesthetized by isoflurane inhalation until they reached a surgical plane of anesthesia. Approximately 0.5 mL of blood was collected via cardiac puncture and transferred to EDTA-coated tubes on ice. Animals were then euthanized by cervical dislocation, and their brains were removed, weighed, and immediately frozen on dry ice. At the end of sample collection, blood was centrifuged at 4000 rpm for 10 min at 4 °C, and the plasma was separated. All samples were stored at −80 °C until the time of bioanalysis.
(§6) Plasma samples were extracted for analysis using a protein precipitation method with acetonitrile. A total of 50 µL of diluted plasma samples was mixed with 50 µL of an internal standard (IS) solution in a 1:1 mixture of acetonitrile and water. A total of 200 µL of acetonitrile was then added to the mixture, which was vortexed for 30 s. The samples were centrifuged at 13,000 rpm for 20 min, decanted into a 96-well plate, and further centrifuged at 4000 rpm for 20 min. The samples were then analyzed using ultra-high-performance electrospray ionization tandem mass spectrometry (UHPLC-ESI-MS/MS).
(§7) Brains were homogenized in a 1:1 mixture of acetonitrile and water (2 mL per mouse brain) using the T18 ULTRA-TURRAX (IKA, Staufen im Breisgau, Germany) homogenizer for about 1 min. The homogenate was centrifuged at 13,000 rpm for 20 min, and 50 µL of the supernatant was treated in the same way as the plasma samples for analysis.
(§8) At 1.5 min, the mobile phase composition was switched back to 50% B at 1.6 min and then held at 50% B until 2.5 min. The flow rate used throughout the experiment was 0.4 mL/min. […] Each compound was matched with a proprietary co-eluting internal standard. The UHPLC-ESI MS/MS system was controlled, and samples were quantified using Analyst 1.6.

[4] = Brain-to-plasma ratio in rats; conditions: Sprague-Dawley, rat
Experimental: as §5, §6, §7, §8

[5] = Brain-to-plasma ratio in mice; conditions: CF-1, mouse
Experimental: as §5, §6, §7, §8

[6] = Plasma protein binding, mouse; conditions: Xenon in-house data
Excerpt: (§9) PPB data is available in Supplemental Table S1.
(§10) Supplemental Table S1. Summary of effective plasma concentrations, plasma protein binding (PPB), and unbound plasma concentrations (Cp,u) for the ASMs tested in mice, rats and humans.
(§11) *For mouse and rat, plasma EC50 from the MES assay at one time point after a single dose is shown. For human, literature-reported therapeutic plasma concentrations are shown. […]
(§12) mouse, for which published data were used. For human, published data is shown.
(§13) *** Cp,u values for rodents have been calculated based on MES EC50. Cp,u values for humans represent the lower and upper bounds of reported therapeutic plasma concentrations, adjusted for PPB, as reported in clinical pharmacokinetic

[7] = human, cited from earlier work; for Effective plasma concentration: literature-reported therapeutic plasma concentrations ref 36-47; for Cp,u (unbound therapeutic plasma concentration): lower and upper bounds of therapeutic plasma concentrations adjusted for PPB ref 36-47
[8] = Plasma protein binding, rat; conditions: Xenon in-house data
Excerpt: as §9, §10, §11, §12, §13

MES-induced seizures [9] = experiment: Alternating current maximal electroshock seizure assay (AC-MES) in rats with plasma and brain exposure; type: in vivo, Sprague-Dawley rats; conditions: for ED50: single PO dose, pre-treatment 0.5-2 h per Table 2, read-out: ED50 (median effective dose)
Experimental: as §1, §2, §3, §4, §5, §6, §7, §8

[10] = mouse plasma, cited from earlier work
[11] = parameters: method as in earlier work; conditions: rat plasma; published data ref 34; cited from earlier work
[12] = mouse MES, brain concentration for 50% probability of seizure protection, read-out: EC50 Brain
[13] = mouse MES, plasma concentration for 50% probability of seizure protection, one time point after single dose, read-out: EC50 Plasma
[14] = mouse, calculated based on MES EC50 and PPB, read-out: Cp,u EC50 (unbound plasma concentration)
[15] = rat MES, brain concentration for 50% probability of seizure protection, read-out: EC50 Brain
[16] = rat MES, plasma concentration for 50% probability of seizure protection, one time point after single dose, read-out: EC50 Plasma
[17] = rat, calculated based on MES EC50 and PPB, read-out: Cp,u EC50 (unbound plasma concentration)
[18] = Rattus norvegicus, read-out: Cp,u EC50 (unbound plasma concentration)
[19] = Rattus norvegicus, read-out: EC50 Brain
[20] = Rattus norvegicus, read-out: EC50 Plasma

Question: With NC(=O)N1c2ccccc2C=Cc2ccccc21 [CBZ, carbamazepine] as the molecule, how does the ED50 (MES-induced seizures [1]) read?
Answer: 9.67 mg/kg

Question: What about the “PPB (% bound)” value [2] of the same molecule?
Answer: 75.0 % bound

Question: And the pEC50 (MES-induced seizures [3]; [12])?
Answer: 4.49

Question: And the pEC50 (MES-induced seizures [3]; [13])?
Answer: 4.86

Question: What about the pEC50 (MES-induced seizures [3]; [14]) of the same molecule?
Answer: 5.15

Question: What about the Kp ([4]; brain and plasma, oral) of the same molecule?
Answer: 1.03

Question: What about the Kp ([5]; brain and plasma, oral) of the same molecule?
Answer: 2.36

Question: And the “PPB (% bound)” value [6]?
Answer: 52.4 % bound

Question: And the Effective plasma concentration [7]?
Answer: 17 to 51 µM

Question: What about the “Cp,u (unbound therapeutic plasma concentration)” value [7] of the same molecule?
Answer: 4.25 to 12.8 µM

Question: What about the “PPB (% bound)” value [8] of the same molecule?
Answer: 63.9 % bound

Question: And the pEC50 (MES-induced seizures [9]; [15])?
Answer: 5.33

Question: What about the pEC50 (MES-induced seizures [9]; [16]) of the same molecule?
Answer: 5.34

Question: And the ED50 (MES-induced seizures [9]; rat MES)?
Answer: 4.39 mg/kg

Question: What about the pEC50 (MES-induced seizures [9]; [17]) of the same molecule?
Answer: 5.79

Question: With NC(=O)O[C@@H](Cn1ncnn1)c1ccccc1Cl [CNB, cenobamate] as the molecule, how does the ED50 (MES-induced seizures [1]) read?
Answer: 7.05 mg/kg

Question: What about the “PPB (% bound)” value [2] of the same molecule?
Answer: 60.0 % bound

Question: And the pEC50 (MES-induced seizures [3]; [12])?
Answer: 4.60

Question: What about the pEC50 (MES-induced seizures [3]; [13]) of the same molecule?
Answer: 4.18

Question: What about the pEC50 (MES-induced seizures [3]; [14]) of the same molecule?
Answer: 4.40

Question: What about the Kp ([4]; in vivo) of the same molecule?
Answer: 0.67

Question: What about the Kp ([5]; in vivo) of the same molecule?
Answer: 0.38

Question: And the Effective plasma concentration [7]?
Answer: 89.3 to 170 µM

Question: And the “Cp,u (unbound therapeutic plasma concentration)” value [7]?
Answer: 35.7 to 68.0 µM

Question: What about the “PPB (% bound)” value ([10]; published data ref 35) of the same molecule?
Answer: 43.2 % bound

Question: What about the “PPB (% bound)” value [8] of the same molecule?
Answer: 46.1 % bound

Question: What about the pEC50 (MES-induced seizures [9]; [18]) of the same molecule?
Answer: 5.05

Question: What about the pEC50 (MES-induced seizures [9]; [19]) of the same molecule?
Answer: 4.97

Question: What about the pEC50 (MES-induced seizures [9]; [20]) of the same molecule?
Answer: 4.80

Question: And the “Doses giving significant reduction of MES-induced seizures (fraction seizing)” value (MES-induced seizures [9]; rat MES, vs vehicle, Kruskal-Wallis/Dunn)?
Answer: 18 mg/kg

Question: Which results are given for COC[C@@H](NC(C)=O)C(=O)NCc1ccccc1 [LSM, lacosamide]?
Answer: ED50 (MES-induced seizures [1]): 15.2 mg/kg; PPB (% bound) [2]: 13.4 % bound; pEC50 (MES-induced seizures [3]; [12]): 4.83; pEC50 (MES-induced seizures [3]; [13]): 4.71; pEC50 (MES-induced seizures [3]; [14]): 4.81; Kp ([4]; in vivo): 0.49; Kp ([5]; in vivo): 0.77; PPB (% bound) [6]: 21.8 % bound; PPB (% bound) [8]: 22.9 % bound; pEC50 (MES-induced seizures [9]; [18]): 4.65; pEC50 (MES-induced seizures [9]; [19]): 4.91; pEC50 (MES-induced seizures [9]; [20]): 4.60

Question: With O=C1NC(=O)C(c2ccccc2)(c2ccccc2)N1 [PHT, phenytoin] as the molecule, how does the ED50 (MES-induced seizures [1]) read?
Answer: 9.81 mg/kg

Question: What about the “PPB (% bound)” value [2] of the same molecule?
Answer: 90.0 % bound

Question: And the pEC50 (MES-induced seizures [3]; [12])?
Answer: 4.51

Question: What about the pEC50 (MES-induced seizures [3]; [13]) of the same molecule?
Answer: 4.56

Question: And the pEC50 (MES-induced seizures [3]; [14])?
Answer: 5.27

Question: What about the Kp ([4]; brain and plasma, oral) of the same molecule?
Answer: 0.83

Question: And the Kp ([5]; brain and plasma, oral)?
Answer: 1.11

Question: And the “PPB (% bound)” value [6]?
Answer: 80.3 % bound

Question: And the Effective plasma concentration [7]?
Answer: 40 to 79 µM

Question: What about the “Cp,u (unbound therapeutic plasma concentration)” value [7] of the same molecule?
Answer: 4.00 to 7.90 µM

Question: And the “PPB (% bound)” value [8]?
Answer: 80.6 % bound

Question: What about the pEC50 (MES-induced seizures [9]; [15]) of the same molecule?
Answer: 5.58

Question: What about the pEC50 (MES-induced seizures [9]; [16]) of the same molecule?
Answer: 5.49

Question: And the ED50 (MES-induced seizures [9]; rat MES)?
Answer: 16.9 mg/kg

Question: What about the pEC50 (MES-induced seizures [9]; [17]) of the same molecule?
Answer: 6.05

Question: Which results are given for CCOC(=O)Nc1ccc(NCc2ccc(F)cc2)cc1N [RTG, retigabine]?
Answer: PPB (% bound) [2]: 80.0 % bound; pEC50 (MES-induced seizures [3]; [13]): 5.65; pEC50 (MES-induced seizures [3]; [14]): 6.28; PPB (% bound) [6]: 86.2 % bound; Effective plasma concentration [7]: 1.98 to 3.99 µM; PPB (% bound) [8]: 85.1 % bound; pEC50 (MES-induced seizures [9]; [18]): 6.70; pEC50 (MES-induced seizures [9]; [20]): 5.84

Question: Which ED50 (MES-induced seizures [1]) does the source give for CCCC(CCC)C(=O)O [VPA, valproic acid] here?
Answer: 196 mg/kg

Question: What about the “PPB (% bound)” value [2] of the same molecule?
Answer: 90.0 % bound

Question: What about the pEC50 (MES-induced seizures [3]; Mus musculus, read-out: EC50 Brain) of the same molecule?
Answer: 3.20

Question: What about the pEC50 (MES-induced seizures [3]; [13]) of the same molecule?
Answer: 2.78

Question: What about the pEC50 (MES-induced seizures [3]; [14]) of the same molecule?
Answer: 2.79

Question: And the “PPB (% bound)” value [11]?
Answer: 66.5 % bound

Question: What about the Kp ([4]; brain and plasma, oral) of the same molecule?
Answer: 0.24

Question: And the Kp ([5]; brain and plasma, oral)?
Answer: 0.38

Question: What about the Effective plasma concentration [7] of the same molecule?
Answer: 346 to 693 µM

Question: What about the “Cp,u (unbound therapeutic plasma concentration)” value [7] of the same molecule?
Answer: 34.6 to 69.3 µM

Question: What about the “PPB (% bound)” value ([10]; published data ref 34) of the same molecule?
Answer: 12.0 % bound

Question: What about the pEC50 (MES-induced seizures [9]; [18]) of the same molecule?
Answer: 3.19

Question: What about the pEC50 (MES-induced seizures [9]; [19]) of the same molecule?
Answer: 3.51

Question: And the pEC50 (MES-induced seizures [9]; [20])?
Answer: 2.88
